Test results as given in US11230538B2, “Herbicides” (SYNGENTA PARTICIPATIONS AG, priority 2016, dated 2022).

Assays:
Type in all cases: in vivo
[1] = tested on: Alopecurus myosuroides (ALOMY); assay: B2 Post-emergence herbicidal activity; set-up: key: 5=total damage to plant; 0=no damage to plant; details: post-emergence application, rate 1000 g/ha, evaluated after 13 days
Experimental: (§1) Seeds of a variety of test species were sown in standard soil in pots: Triticum aestivium (TRZAW), Avena fatua (AVEFA), Alopecurus myosuroides (ALOMY), Echinochloa crus-galli (ECHCG), Lolium perenne (LOLPE), Zea Mays (ZEAMX), Abutilon theophrasti (ABUTH), Amaranthus retroflexus (AMARE) and Setaria fabenri (SETFA). After 8 days cultivation (post-emergence) under controlled conditions in a glasshouse (at 24/16° C., day/night; 14 hours light; 65% humidity), the plants were sprayed with an aqueous spray solution derived from the formulation of the technical active ingredient in acetone I water (50:50) solution containing 0.5% Tween 20 (polyoxyethelyene sorbitan monolaurate, CAS RN 9005-64-5). The test plants were then grown in a glasshouse under controlled conditions (at 24/16° C., day/night; 14 hours light; 65% humidity) and watered twice daily. After 13 days, the test was evaluated (5=total damage to plant; 0=no damage to plant).

[2] = tested on: Triticum aestivium (TRZAW); assay: B2 Post-emergence herbicidal activity; set-up: key: 5=total damage to plant; 0=no damage to plant; details: post-emergence application, rate 1000 g/ha, evaluated after 13 days
Experimental: as §1

[3] = tested on: Setaria fabenri (SETFA); assay: B2 Post-emergence herbicidal activity; set-up: key: 5=total damage to plant; 0=no damage to plant; details: post-emergence application, rate 1000 g/ha, evaluated after 13 days
Experimental: as §1

[4] = tested on: Lolium perenne (LOLPE); assay: B1 Pre-emergence herbicidal activity; set-up: key to Pre-emergence herbicidal activity, LOLPE (damage score 0-5): 5=total damage to plant; 0=no damage to plant; details: pre-emergence application, rate 1000 g/ha, evaluated after 13 days
Experimental: as §1, with “fabenr” for “fabenri”, “After” for “After 8 days”, “for one day (pre-emergence)” for “(post-emergence)”

[5] = tested on: Alopecurus myosuroides (ALOMY); assay: B1 Pre-emergence herbicidal activity; set-up: key: 5=total damage to plant; 0=no damage to plant; details: pre-emergence application, rate 1000 g/ha, evaluated after 13 days
Experimental: as §1, with “fabenr” for “fabenri”, “After” for “After 8 days”, “for one day (pre-emergence)” for “(post-emergence)”

[6] = tested on: Avena fatua (AVEFA); assay: B1 Pre-emergence herbicidal activity; set-up: key: 5=total damage to plant; 0=no damage to plant; details: pre-emergence application, rate 1000 g/ha, evaluated after 13 days
Experimental: as §1, with “fabenr” for “fabenri”, “After” for “After 8 days”, “for one day (pre-emergence)” for “(post-emergence)”

[7] = tested on: Triticum aestivium (TRZAW); assay: B1 Pre-emergence herbicidal activity; set-up: key: 5=total damage to plant; 0=no damage to plant; details: pre-emergence application, rate 1000 g/ha, evaluated after 13 days
Experimental: as §1, with “fabenr” for “fabenri”, “After” for “After 8 days”, “for one day (pre-emergence)” for “(post-emergence)”

[8] = tested on: Echinochloa crus-galli (ECHCG); assay: B1 Pre-emergence herbicidal activity; set-up: key to Pre-emergence herbicidal activity, ECHCG (damage score 0-5): 5=total damage to plant; 0=no damage to plant; details: pre-emergence application, rate 1000 g/ha, evaluated after 13 days
Experimental: as §1, with “fabenr” for “fabenri”, “After” for “After 8 days”, “for one day (pre-emergence)” for “(post-emergence)”

[9] = tested on: Setaria fabenr (SETFA); assay: B1 Pre-emergence herbicidal activity; set-up: key to Pre-emergence herbicidal activity, SETFA (damage score 0-5): 5=total damage to plant; 0=no damage to plant; details: pre-emergence application, rate 1000 g/ha, evaluated after 13 days
Experimental: as §1, with “fabenr” for “fabenri”, “After” for “After 8 days”, “for one day (pre-emergence)” for “(post-emergence)”

[10] = tested on: Echinochloa crus-galli (ECHCG); assay: B2 Post-emergence herbicidal activity; details: post-emergence application, rate 1000 g/ha, evaluated after 13 days
Experimental: as §1

Structure (SMILES)	Post-emergence herbicidal activity, ALOMY (damage score 0-5) [1]	Post-emergence herbicidal activity, TRAZW (damage score 0-5) [2]	Post-emergence herbicidal activity, SETFA (damage score 0-5) [3]	Pre-emergence herbicidal activity, LOLPE (damage score 0-5) [4]	Pre-emergence herbicidal activity, ALOMY (damage score 0-5) [5]	Pre-emergence herbicidal activity, AVEFA (damage score 0-5) [6]	Pre-emergence herbicidal activity, TRAZW (damage score 0-5) [7]	Pre-emergence herbicidal activity, ECHCG (damage score 0-5) [8]	Pre-emergence herbicidal activity, SETFA (damage score 0-5) [9]	Post-emergence herbicidal activity, ECHCG (damage score 0-5) [10]
CC(C)CN(C(=O)C(C)C)c1ccc(-c2cncc(F)c2)nc1C(F)(F)F [Compound C86]	0	0	1	0	0	0	0	0	1	1
CC(C)C(=O)N(CC1CC1)c1ccc(-c2cncc(F)c2)nc1C(F)(F)F [Compound C87]	0	0	4	0	0	0	0	2	5	3
CC(C)C(=O)N(COCC(C)(C)C)c1ccc(-c2cncc(F)c2)nc1C(F)(F)F [Compound C89]	0	0	4	0	0	1	0	3	4	4
CCC(=O)N(CCOC)c1ccc(-c2cncc(F)c2)nc1C(F)(F)F [Compound C96]	0	0	4	0	1	1	0	3	5	3
CCC(=O)N(CC(C)C)c1ccc(-c2cncc(F)c2)nc1C(F)(F)F [Compound C97]	0	0	3	0	0	0	0	1	3	2
CCC(=O)N(CCSC)c1ccc(-c2cncc(F)c2)nc1C(F)(F)F [Compound C98]	0	0	0	1	0	0	0	1	3	1
